Measurements: BigSolDB 2.1

O=C1Nc2ccccc2C1=O
Settings | solubility (mole fraction)
in PEG-400, 298.15 K | 0.0985
in PEG-400, 308.15 K | 0.109
in PEG-400, 318.15 K | 0.121
in PEG-400, 328.15 K | 0.132
in PEG-400, 338.15 K | 0.144

solubility (mole fraction)
Settings | in ethanol | in ethyl acetate | in ethylene glycol | in isopropanol | in propylene glycol | in sec-butanol | in transcutol | in water
298.15 K | 0.00409 | 0.00568 | 0.00754 | 0.00419 | 0.00673 | 0.00516 | 0.523 | 5.14e-05
308.15 K | 0.00506 | 0.00738 | 0.0092 | 0.00545 | 0.00827 | 0.00596 | 0.539 | 8.08e-05
318.15 K | 0.0065 | 0.00926 | 0.011 | 0.00694 | 0.01 | 0.0071 | 0.561 | 0.000113
328.15 K | 0.00755 | 0.0111 | 0.0127 | 0.00867 | 0.0112 | 0.00814 | 0.581 | 0.000152
338.15 K | 0.00897 | 0.013 | 0.0146 | 0.0105 | 0.0133 | 0.00899 | 0.598 | 0.000202
